Calls of active or inactive are those of the source. The calls are words filed in the database; no cut-off is given here.
How the values were obtained:
Bos taurus = organism: Bos taurus; experiment: Binding affinity to calf thymus DNA assessed as induction of hyperchromic shift at 20 uM sonicated for 35 to 40 mins by UV-vis spectrophotometric analysis
HOP-92 [1] = experiment: Growth inhibition of human HOP92 cells incubated for 48 hrs by sulforhodamine B assay; type: functional; conditions: HOP-92, 48 h
HCT-116 = experiment: Growth inhibition of human HCT116 cells incubated for 48 hrs by sulforhodamine B assay; type: functional; conditions: HCT-116, 48 h
SK-MEL-2 = experiment: Growth inhibition of human SK-MEL-2 cells incubated for 48 hrs by sulforhodamine B assay; type: functional; conditions: SK-MEL-2, 48 h
Hs-578T = experiment: Growth inhibition of human Hs 578T cells incubated for 48 hrs by sulforhodamine B assay; type: functional
CCRF-CEM = experiment: Growth inhibition of human CCRF-CEM cells assessed as cell growth at 0.01 uM incubated for 48 hrs by sulforhodamine B assay relative to control; type: functional; conditions: read-out: Activity
K562 = experiment: Growth inhibition of human K562 cells assessed as cell growth at 0.01 uM incubated for 48 hrs by sulforhodamine B assay relative to control; type: functional; conditions: K562, 48 h, read-out: Activity
SR [2] = experiment: Growth inhibition of human SR cells assessed as cell growth at 0.01 uM incubated for 48 hrs by sulforhodamine B assay relative to control; type: functional; conditions: read-out: Activity
COLO 205 = experiment: Growth inhibition of human COLO205 cells assessed as cell growth at 0.01 uM incubated for 48 hrs by sulforhodamine B assay relative to control; type: functional; conditions: COLO 205, 48 h, read-out: Activity
SF-295 = experiment: Growth inhibition of human SF295 cells assessed as cell growth at 0.01 uM incubated for 48 hrs by sulforhodamine B assay relative to control; type: functional; conditions: SF-295, 48 h, read-out: Activity
SNB-19 [3] = experiment: Growth inhibition of human SNB19 cells assessed as cell growth at 0.01 uM incubated for 48 hrs by sulforhodamine B assay relative to control; type: functional; conditions: SNB-19, 48 h, read-out: Activity
SNB-75 [4] = experiment: Growth inhibition of human SNB75 cells assessed as cell growth at 0.01 uM incubated for 48 hrs by sulforhodamine B assay relative to control; type: functional; conditions: SNB-75, 48 h, read-out: Activity
T47D [5] = experiment: Growth inhibition of human T47D cells assessed as cell growth at 0.01 uM incubated for 48 hrs by sulforhodamine B assay relative to control; type: functional; conditions: read-out: Activity
SR [6] = experiment: Growth inhibition of human SR cells assessed as cell growth at 0.1 uM incubated for 48 hrs by sulforhodamine B assay relative to control; type: functional; conditions: read-out: Activity
EKVX = experiment: Growth inhibition of human EKVX cells assessed as cell growth at 0.1 uM incubated for 48 hrs by sulforhodamine B assay relative to control; type: functional; conditions: read-out: Activity
HOP-62 = experiment: Growth inhibition of human HOP62 cells assessed as cell growth at 0.1 uM incubated for 48 hrs by sulforhodamine B assay relative to control; type: functional; conditions: HOP-62, 48 h, read-out: Activity
HCC 2998 = experiment: Growth inhibition of human HCC2998 cells assessed as cell growth at 0.1 uM incubated for 48 hrs by sulforhodamine B assay relative to control; type: functional; conditions: HCC 2998, 48 h, read-out: Activity
HCT-15 = experiment: Growth inhibition of human HCT15 cells assessed as cell growth at 0.1 uM incubated for 48 hrs by sulforhodamine B assay relative to control; type: functional; conditions: HCT-15, 48 h, read-out: Activity
SNB-19 [7] = experiment: Growth inhibition of human SNB19 cells assessed as cell growth at 0.1 uM incubated for 48 hrs by sulforhodamine B assay relative to control; type: functional; conditions: SNB-19, 48 h, read-out: Activity
LOX IMVI = experiment: Growth inhibition of human LOXIMVI cells assessed as cell growth at 0.1 uM incubated for 48 hrs by sulforhodamine B assay relative to control; type: functional; conditions: read-out: Activity
Malme-3M [8] = experiment: Growth inhibition of human MALME-3M cells assessed as cell growth at 0.1 uM incubated for 48 hrs by sulforhodamine B assay relative to control; type: functional; conditions: read-out: Activity
NCI/ADR-RES [9] = experiment: Growth inhibition of human NCI-ADR-RES cells assessed as cell growth at 0.1 uM incubated for 48 hrs by sulforhodamine B assay relative to control; type: functional; conditions: read-out: Activity
TK-10 = experiment: Growth inhibition of human TK10 cells assessed as cell growth at 0.1 uM incubated for 48 hrs by sulforhodamine B assay relative to control; type: functional; conditions: TK-10, 48 h, read-out: Activity
DU-145 = experiment: Growth inhibition of human DU145 cells assessed as cell growth at 0.1 uM incubated for 48 hrs by sulforhodamine B assay relative to control; type: functional; conditions: DU-145, 48 h, read-out: Activity
HOP-92 [10] = experiment: Growth inhibition of human HOP92 cells assessed as cell growth at 1 uM incubated for 48 hrs by sulforhodamine B assay relative to control; type: functional; conditions: HOP-92, 48 h, read-out: Activity
OVCAR-5 = experiment: Growth inhibition of human OVCAR5 cells assessed as cell growth at 1 uM incubated for 48 hrs by sulforhodamine B assay relative to control; type: functional; conditions: OVCAR-5, 48 h, read-out: Activity
SK-OV-3 = experiment: Growth inhibition of human SKOV3 cells assessed as cell growth at 1 uM incubated for 48 hrs by sulforhodamine B assay relative to control; type: functional; conditions: SK-OV-3, 48 h, read-out: Activity
PC-3 = experiment: Growth inhibition of human PC3 cells assessed as cell growth at 1 uM incubated for 48 hrs by sulforhodamine B assay relative to control; type: functional; conditions: PC-3, 48 h, read-out: Activity
T47D [11] = experiment: Growth inhibition of human T47D cells assessed as cell growth at 1 uM incubated for 48 hrs by sulforhodamine B assay relative to control; type: functional; conditions: read-out: Activity
RPMI-8226 = experiment: Growth inhibition of human RPMI8226 cells assessed as cell growth at 100 uM incubated for 48 hrs by sulforhodamine B assay relative to control; type: functional; conditions: RPMI-8226, 48 h, read-out: Activity
SNB-75 [12] = experiment: Growth inhibition of human SNB75 cells assessed as cell growth at 100 uM incubated for 48 hrs by sulforhodamine B assay relative to control; type: functional; conditions: SNB-75, 48 h, read-out: Activity
Malme-3M [13] = experiment: Growth inhibition of human MALME-3M cells assessed as cell growth at 100 uM incubated for 48 hrs by sulforhodamine B assay relative to control; type: functional; conditions: read-out: Activity
NCI/ADR-RES [14] = experiment: Growth inhibition of human NCI-ADR-RES cells assessed as cell growth at 100 uM incubated for 48 hrs by sulforhodamine B assay relative to control; type: functional; conditions: read-out: Activity
[15] = read-out: LC50 (the source's name)
[16] = read-out: pLC50 (the source's name) (converted)

SMILES: c1ccc2[nH]c(-c3ccc(-c4nccc5c4[nH]c4ccccc45)cc3)nc2c1
- Activity (Bos taurus): Active
- GI50 (HOP-92 [1]; read-out: GI50): 2.06 µM
- CC50 (HOP-92 [1]; [15]): 2.98 µM
- TGI (HOP-92 [1]; read-out: TGI): 5.79 µM
- GI50 (HOP-92 [1]; read-out: pGI50 (converted)): 2.04 µM
- CC50 (HOP-92 [1]; [16]): 29.5 µM
- TGI (HOP-92 [1]; read-out: pTGI (converted)): 5.75 µM
- CC50 (HCT-116; [15]): 4.43 µM
- GI50 (HCT-116; read-out: pGI50 (converted)): 2.82 µM
- CC50 (HCT-116; [16]): 44.7 µM
- TGI (HCT-116; read-out: pTGI (converted)): 10.5 µM
- GI50 (SK-MEL-2; read-out: GI50): 1.99 µM
- CC50 (SK-MEL-2; [15]): 9.45 µM
- TGI (SK-MEL-2; read-out: TGI): 4.34 µM
- GI50 (SK-MEL-2; read-out: pGI50 (converted)): 2 µM
- CC50 (SK-MEL-2; [16]): 9.55 µM
- TGI (SK-MEL-2; read-out: pTGI (converted)): 4.37 µM
- GI50 (Hs-578T; read-out: GI50): 2.23 µM
- TGI (Hs-578T; read-out: TGI): 5.93 µM
- GI50 (Hs-578T; read-out: pGI50 (converted)): 2.24 µM
- CC50 (Hs-578T; [16]): > 100 µM
- TGI (Hs-578T; read-out: pTGI (converted)): 5.89 µM
- growth at 0.01 µM (CCRF-CEM): 102%
- growth at 0.01 µM (K562): 104%
- growth at 0.01 µM (SR [2]): 97%
- growth at 0.01 µM (COLO 205): 94%
- growth at 0.01 µM (SF-295): 90%
- growth at 0.01 µM (SNB-19 [3]): 91%
- growth at 0.01 µM (SNB-75 [4]): 81%
- growth at 0.01 µM (T47D [5]): 88%
- growth at 0.1 µM (SR [6]): 93%
- growth at 0.1 µM (EKVX): 96%
- growth at 0.1 µM (HOP-62): 89%
- growth at 0.1 µM (HCC 2998): 95%
- growth at 0.1 µM (HCT-15): 97%
- growth at 0.1 µM (SNB-19 [7]): 96%
- growth at 0.1 µM (LOX IMVI): 92%
- growth at 0.1 µM (Malme-3M [8]): 94%
- growth at 0.1 µM (NCI/ADR-RES [9]): 98%
- growth at 0.1 µM (TK-10): 94%
- growth at 0.1 µM (DU-145): 96%
- growth at 1 µM (HOP-92 [10]): 85%
- growth at 1 µM (OVCAR-5): 96%
- growth at 1 µM (SK-OV-3): 100%
- growth at 1 µM (PC-3): 95%
- growth at 1 µM (T47D [11]): 82%
- growth at 100 µM (RPMI-8226): 43%
- growth at 100 µM (SNB-75 [12]): 84%
- growth at 100 µM (Malme-3M [13]): 72%
- growth at 100 µM (NCI/ADR-RES [14]): 45%

SMILES: c1ccc2c3c([nH]c2c1)C(c1ccc(C2NCCc4c2[nH]c2ccccc42)cc1)NCC3 (racemic)
- Activity (Bos taurus): Active
- CC50 (HOP-92 [1]; [15]): 9.59 µM
- GI50 (HOP-92 [1]; read-out: pGI50 (converted)): 0.724 µM
- CC50 (HOP-92 [1]; [16]): 9.55 µM
- TGI (HOP-92 [1]; read-out: pTGI (converted)): 2.88 µM
- GI50 (HCT-116; read-out: GI50): 1.7 µM
- CC50 (HCT-116; [15]): 6.59 µM
- TGI (HCT-116; read-out: TGI): 3.35 µM
- GI50 (HCT-116; read-out: pGI50 (converted)): 0.17 µM
- CC50 (HCT-116; [16]): 0.661 µM
- GI50 (SK-MEL-2; read-out: GI50): 1.7 µM
- CC50 (SK-MEL-2; [15]): 7.47 µM
- TGI (SK-MEL-2; read-out: TGI): 3.57 µM
- GI50 (SK-MEL-2; read-out: pGI50 (converted)): 1.7 µM
- CC50 (SK-MEL-2; [16]): 7.41 µM
- TGI (SK-MEL-2; read-out: pTGI (converted)): 3.55 µM
- GI50 (Hs-578T; read-out: GI50): 1.43 µM
- CC50 (Hs-578T; [15]): 11.5 µM
- TGI (Hs-578T; read-out: TGI): 3.82 µM
- GI50 (Hs-578T; read-out: pGI50 (converted)): 1.45 µM
- CC50 (Hs-578T; [16]): 11.5 µM
- TGI (Hs-578T; read-out: pTGI (converted)): 3.8 µM
- growth at 0.01 µM (CCRF-CEM): 98%
- growth at 0.01 µM (K562): 113%
- growth at 0.01 µM (SR [2]): 108%
- growth at 0.01 µM (COLO 205): 95%
- growth at 0.01 µM (SF-295): 90%
- growth at 0.01 µM (SNB-19 [3]): 97%
- growth at 0.01 µM (SNB-75 [4]): 78%
- growth at 0.01 µM (T47D [5]): 82%
- growth at 0.1 µM (SR [6]): 106%
- growth at 0.1 µM (EKVX): 90%
- growth at 0.1 µM (HOP-62): 85%
- growth at 0.1 µM (HCC 2998): 81%
- growth at 0.1 µM (HCT-15): 95%
- growth at 0.1 µM (SNB-19 [7]): 99%
- growth at 0.1 µM (LOX IMVI): 91%
- growth at 0.1 µM (Malme-3M [8]): 89%
- growth at 0.1 µM (NCI/ADR-RES [9]): 93%
- growth at 0.1 µM (TK-10): 96%
- growth at 0.1 µM (DU-145): 100%
- growth at 1 µM (HOP-92 [10]): 44%
- growth at 1 µM (OVCAR-5): 85%
- growth at 1 µM (SK-OV-3): 90%
- growth at 1 µM (PC-3): 66%
- growth at 1 µM (T47D [11]): 66%
- growth at 100 µM (RPMI-8226): 75%
- growth at 100 µM (SNB-75 [12]): 98%
- growth at 100 µM (Malme-3M [13]): 83%
- growth at 100 µM (NCI/ADR-RES [14]): -30%
